{"source": "patent US20220264878A1", "about": "“HERBICIDAL COMPOSITION CONTAINING R-TYPE PYRIDYLOXY CARBOXYLIC ACID DERIVATIVE AND USE THEREOF” (Qingdao Kingagroot Chemical Compound Co., Ltd., priority 2019, published 2022)", "assay_type_in_all_cases": "in vivo", "key": {"[1]": {"test_system": "Malachium aquaticum", "assay": "Post-emergence foliage spray, pot culture, fresh weight inhibition (Tables 1-48, 51-98, 101-148; 24 days)", "method_in_brief": "(§1)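 Pot-grown weeds were thinned to 15 per pot (45 per treatment) and sprayed on foliage at the 5–6-leaf stage for grasses or the 6–7-leaf stage for broadleaves. Agents were dissolved in acetone with 0.1% Tween-80 and applied at 450 kg/ha spray volume and 0.3 MPa. Plants were then kept in a greenhouse. Above-ground fresh weight of survivors, with dead plants counted as zero, gave inhibition versus a solvent/emulsifier blank.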"}, "[2]": {"test_system": "Echinochloa caudate", "assay": "Post-emergence foliage spray, pot culture, fresh weight inhibition (Tables 1-48, 51-98, 101-148; 24 days)", "method_in_brief": "as §1"}, "[3]": {"test_system": "Echinochloa caudate", "assay": "Soil sealing treatment, pot culture, fresh weight inhibition (Tables 99, 100)", "method": "(§2) A method for investigating absolute number was employed, wherein whole seedlings of survival weeds were cut off with a blade along the soil surface, and the fresh weight of the weeds was weighed with an analytical balance. For dead weeds, the fresh weight thereof was zero.\n(§3) Theoretical fresh weight inhibition rate of a combination of two active ingredients in each group was calculated by the Gowing method (E0=X+Y−X*Y/100), and then compared with an actually measured inhibition rate (E), thereby effect of the combination (hereafter referred to as combined effect) on weeds was evaluated: the value of E-E0, which was greater than 10%, corresponded to a synergistic effect, the value of E-E0, which was less than −10%, corresponded to an antagonistic effect, and the value of E-E0, which was from −10% to 10%, corresponded to an additional effect. […] Wherein, in the formula, X represented the fresh weight inhibition rate of the active ingredient A in a dosage of P, and Y represented the fresh weight inhibition rate of the active ingredient B in a dosage of Q.\n(§4) Echinochloa crusgalli var zelayensis were collected in Huai'an of Jiangsu Province; Echinochloa caudate were collected in Pingluo of Ningxia Province; Echinochloa oryzoides were collected in Qiqiha'er of Heilongjiang Province.\n(§5) The culture was carried out in a controllable sunlight greenhouse at 20 to 30° C., in natural light, and relative humidity of 57% to 72%. […] The test soil was placed quantitatively to ¾ of the pots and then watered from the bottom of the pots to completely wet the soil to saturation. The pretreated test weed seeds were uniformly sowed on the surface, then covered with 0.5-2 cm soil according to the seed size, and ready-for use 24 hours after sowing.\n(§6) The technical materials were all dissolved in acetone, and diluted with an aqueous solution containing 0.1% emulsifier T-80. The dilution is performed as required.\n(§7) A ratio of A to the active ingredient B and amounts thereof in each group depends on the characteristics and toxicity of the two agents, as well as the main application purpose of a corresponding formulation. Based on the pre-tests in this study, the dosage of A and the active ingredient B applied alone and in combination were shown in the tables. Water containing the solvent and emulsifier same with the above groups but free of the agents was used as a blank control.\n(§8) 3 pots with 30 weed seeds per pot were treated in one treatment with 4 replications per treatment.\n(§9) The pots which were sowed and mulched were evenly placed on a platform with an area of 0.5 m^2, and a solution of agents was sprayed on soil surface thereof by the 3WP-2000-type walking spray tower at a dosage of 675 kg/ha and at a spray pressure of 0.3 MPa. After all the solution was sprayed, the valve was closed. After 30 seconds, the door of the spray tower was opened, and the nutritional bowl was taken out. Then the valve was opened, and the spray tube was cleaned by spraying 50 ml of water.\n(§10) This section was same as the section 4) in the post-emergence treatment by performing foliage spray, and was not repeated herein."}, "[4]": {"test_system": "Echinochloa crusgalli var. zelayensis", "assay": "Post-emergence foliage spray, pot culture, fresh weight inhibition (Tables 1-48, 51-98, 101-148; 24 days)", "method_in_brief": "as §1"}, "[5]": {"test_system": "Galium aparine L.", "assay": "Post-emergence foliage spray, pot culture, fresh weight inhibition (Tables 1-48, 51-98, 101-148; 24 days)", "details": "fresh weight inhibition after 24 days", "method_in_brief": "as §1"}, "[6]": {"test_system": "Echinochloa crusgalli var. zelayensis", "assay": "Soil sealing treatment, pot culture, fresh weight inhibition (Tables 49, 50)", "method": "as §2, §3, §4, §5, §6, §7, §8, §9, §10"}, "[7]": {"test_system": "Conyza Canadensis", "assay": "Post-emergence foliage spray on Conyza Canadensis with a height of 10 cm, fresh weight inhibition (Tables 207-216; 24 days)", "details": "24 days after treatment", "method": "The above weeds were cultivated by a pot culture method. […] Full and uniform weed seeds were selected, soaked in warm water at 25° C. for 6 hours, and germinated in a 28° C. biochemical incubator (darkness). The weed seeds that had just germinatedwere evenly placed on the surface of the soil and then covered with 0.5-1 cm soil according to the sizes of seeds.\nThe technical materials were all dissolved in acetone, and diluted with an aqueous solution containing 0.1% emulsifier Tween-80. The dilution is performed as required.\nA ratio of the active ingredient A to the active ingredient B and amounts thereof in each group depends on the characteristics and toxicity of the two agents, as well as the main application purpose of a corresponding formulation. Based on the pre-tests in this study, the dosage of the active ingredient A and B applied alone and in combination were shown in the tables. Water containing the solvent and emulsifier same with the above groups but free of the agents was used as a blank control.\nIn the stage of weeds with 6˜8 leaves, the weeds were thinned out to maintain 3 weeds per pot and 30 weeds for each treatment, then continued to be cultured to Conyza Canadensis with a height of 10 cm, and treated.\nas §9, with “well-cultured weeds” for “pots which were sowed and mulched”, “the stems and leaves” for “soil surface”, “450” for “675”\nA pot-culture method was employed. For the cultivation of weeds, please refer to the Section 1.1), and “Pesticide guidelines for laboratory bioactivity tests—herbicides”. As to a method for applying agents, please refer to the section 2.3.2), that is, a foliage treatment was employed. After the treatment, the weeds were routinely cultured in a greenhouse.\nas §2\nWherein, in the formula, X represented the fresh weight inhibition rate of the active ingredient A in a dosage of P, and Y represented the fresh weight inhibition rate of the active ingredient B in a dosage of Q."}}}
{"smiles": "C[C@@H](Oc1nc(F)c(Cl)c(N)c1Cl)C(=O)O", "note": "[Compound A1]", "values": [{"measurement": "Control effect (%) of A applied alone in corresponding dose", "setting": "[1]; A1 7.5 g a.i./ha", "result": 35.8, "unit": "%"}, {"measurement": "Control effect (%) of A applied alone in corresponding dose", "setting": "[1]; A1 15 g a.i./ha", "result": 69.6, "unit": "%"}, {"measurement": "Control effect (%) of A applied alone in corresponding dose", "setting": "[2]; A1 75 g a.i./ha", "result": 55.2, "unit": "%"}, {"measurement": "Control effect (%) of A applied alone in corresponding dose", "setting": "[2]; A1 150 g a.i./ha", "result": 76.3, "unit": "%"}, {"measurement": "Control effect (%) of A applied alone in corresponding dose", "setting": "[2]; Table 80, 7.5 g a.i./ha", "result": 55.2, "unit": "%"}, {"measurement": "Control effect (%) of A applied alone in corresponding dose", "setting": "[2]; Table 80, 15 g a.i./ha", "result": 76.3, "unit": "%"}, {"measurement": "Control effect (%) of A applied alone in corresponding dose", "setting": "[2]; Table 81, 75 g a.i./ha", "result": 55.2, "unit": "%"}, {"measurement": "Control effect (%) of A applied alone in corresponding dose", "setting": "[2]; Table 81, 150 g a.i./ha", "result": 76.3, "unit": "%"}, {"measurement": "Control effect (%) of A applied alone in corresponding dose", "setting": "[2]; Table 85, 75 g a.i./ha", "result": 55.2, "unit": "%"}, {"measurement": "Control effect (%) of A applied alone in corresponding dose", "setting": "[2]; Table 85, 150 g a.i./ha", "result": 76.3, "unit": "%"}, {"measurement": "Control effect (%) of A applied alone in corresponding dose", "setting": "[2]; Table 86, 75 g a.i./ha", "result": 55.2, "unit": "%"}, {"measurement": "Control effect (%) of A applied alone in corresponding dose", "setting": "[2]; Table 86, 150 g a.i./ha", "result": 76.3, "unit": "%"}, {"measurement": "Control effect (%) of A applied alone in corresponding dose", "setting": "[2]; Table 89, 75 g a.i./ha", "result": 55.2, "unit": "%"}, {"measurement": "Control effect (%) of A applied alone in corresponding dose", "setting": "[2]; Table 89, 150 g a.i./ha", "result": 76.3, "unit": "%"}, {"measurement": "Control effect (%) of A applied alone in corresponding dose", "setting": "[2]; Table 97, 75 g a.i./ha", "result": 55.2, "unit": "%"}, {"measurement": "Control effect (%) of A applied alone in corresponding dose", "setting": "[2]; Table 97, 150 g a.i./ha", "result": 76.3, "unit": "%"}, {"measurement": "Control effect (%) of A applied alone in corresponding dose", "setting": "[3]; Table 99, 75 g a.i./ha", "result": 23.4, "unit": "%"}, {"measurement": "Control effect (%) of A applied alone in corresponding dose", "setting": "[3]; Table 99, 150 g a.i./ha", "result": 47.2, "unit": "%"}, {"measurement": "Control effect (%) of A applied alone in corresponding dose", "setting": "[3]; Table 100, 75 g a.i./ha", "result": 23.4, "unit": "%"}, {"measurement": "Control effect (%) of A applied alone in corresponding dose", "setting": "[3]; Table 100, 150 g a.i./ha", "result": 47.2, "unit": "%"}]}
{"smiles": "C[C@@H](Oc1nc(F)c(Cl)c(N)c1Cl)C(=O)OCC1CCCO1", "note": "(stereo partly shown) [Compound A2]", "values": [{"measurement": "Control effect (%) of A applied alone in corresponding dose", "setting": "[4]; A2 75 g a.i./ha", "result": 54.2, "unit": "%"}, {"measurement": "Control effect (%) of A applied alone in corresponding dose", "setting": "[4]; A2 150 g a.i./ha", "result": 75.3, "unit": "%"}, {"measurement": "Control effect (%) of A applied alone in corresponding dose", "setting": "[4]; A 75 g a.i./ha, foliage spray, fresh weight inhibition after 24 days", "result": 54.2, "unit": "%"}, {"measurement": "Control effect (%) of A applied alone in corresponding dose", "setting": "[4]; A 150 g a.i./ha, foliage spray, fresh weight inhibition after 24 days", "result": 75.3, "unit": "%"}, {"measurement": "Control effect (%) of A applied alone in corresponding dose", "setting": "[5]; A 7.5 g a.i/ha", "result": 34.8, "unit": "%"}, {"measurement": "Control effect (%) of A applied alone in corresponding dose", "setting": "[5]; A 15 g a.i/ha", "result": 68.5, "unit": "%"}, {"measurement": "Control effect (%) of A applied alone in corresponding dose", "setting": "[5]; A 150 g a.i/ha (so in the source)", "result": 68.5, "unit": "%"}, {"measurement": "Control effect (%) of A applied alone in corresponding dose", "setting": "[6]; A2 75 g a.i./ha", "result": 21.4, "unit": "%"}, {"measurement": "Control effect (%) of A applied alone in corresponding dose", "setting": "[6]; A2 150 g a.i./ha", "result": 45.2, "unit": "%"}, {"measurement": "Control effect (%) of A applied alone in corresponding dose", "setting": "[7]; A alone 60 g a.i./ha", "result": 22.6, "unit": "%"}, {"measurement": "Control effect (%) of A applied alone in corresponding dose", "setting": "[7]; A alone 120 g a.i./ha", "result": 47.9, "unit": "%"}]}
